Source: PubChem BioAssay AID1996
Converted amounts (≈) assume the structure as drawn.

Conditions: buffer; pH 7.4; 200.0 µM

Row | SMILES | solubility kinetic [µg/mL]
1 | Cc1ccc(C2(C)NC(=O)N(CC(=O)N3CCN(S(=O)(=O)c4cccc([N+](=O)[O-])c4)CC3)C2=O)cc1 (stereo not drawn) | 12.7 (≈ 24.6 µM)
2 | Cc1ccc(Nc2c(F)c(F)c(F)c(F)c2C(=O)O)c(C)c1 | 40.4 (≈ 129 µM)
3 | CC(C)Cc1nc2ccccc2[nH]1 | > 26.1
4 | Cc1cc(=O)[nH]c(Nc2ccc(Cl)cc2)n1 | > 35.4
5 | CCS(=O)(=O)N1CCC(C(=O)Nc2ccc(C(C)=O)cc2)CC1 | > 50.8
6 | CCNC(=S)Nc1cccc(NC(=O)c2ccccc2O)c1 | 42 (≈ 133 µM)
7 | COc1ccccc1NC(=O)COC(=O)c1oc2ccccc2c1C | 6 (≈ 17.7 µM)
8 | CCOC(=O)N1CCC(NS(=O)(=O)c2ccc(C)c(Cl)c2)CC1 | > 54.1
9 | CCC(C)NC(=O)c1ccc(-n2c(=S)[nH]c3ccccc3c2=O)cc1 (stereo not drawn) | 3.7 (≈ 10.5 µM)
10 | O=C(CSc1nc2ccccc2o1)N/N=C/c1ccc(C(=O)O)cc1 | > 53.3
11 | CCC(C(=O)Nc1cc(Cl)c(OC)cc1OC)c1ccccc1 (stereo not drawn) | < 0.7
12 | Cc1ccc(NC(=O)C2COc3ccccc3O2)c(C)c1 (stereo not drawn) | 33 (≈ 116 µM)
13 | O=C(NN1C(=O)NC2(CCCCC2)C1=O)c1cc(F)cc(F)c1 | > 48.5
14 | COc1ccc(S(=O)(=O)/C(C#N)=C/Nc2ccccc2F)cc1 | 3.3 (≈ 9.93 µM)
15 | OC(CNCC1COc2ccccc2O1)COc1ccccc1F (stereo not drawn) | > 50
16 | Cc1cccc(Nc2nc(C)cc(C)c2C#N)c1 | 0.8 (≈ 3.37 µM)
17 | COc1ccc(CN2CCN(C(=O)C3CCN(C(=O)Nc4ccccc4)CC3)CC2)cc1OC | 60.6 (≈ 130 µM)
18 | O=C(COC(=O)COc1ccc(Cl)cc1Br)NC1CC1 | > 54.4
19 | Oc1ccc(C(=S)N2CCN(c3cccc(Cl)c3)CC2)cc1 | 1.3 (≈ 3.91 µM)
20 | CN(C(=O)COc1cccc(C#N)c1)C1CCS(=O)(=O)C1 (stereo not drawn) | > 46.3
21 | CCOC(=O)C1=C(C)Nc2nc3ccccc3n2C1c1ccc(O)cc1 (stereo not drawn) | < 0.2
22 | COc1ccc(N2C(=O)CCC2(C(N)=O)c2ccccc2)cc1 (stereo not drawn) | > 46.6
23 | CCOc1ccc(Nc2nc(N)c([N+](=O)[O-])c(N3CCN(C)CC3)n2)cc1 | 51.9 (≈ 139 µM)
24 | O=C(NCCCN1CCOCC1)c1ccc(Cl)c([N+](=O)[O-])c1 | 45.2 (≈ 138 µM)

Row | SMILES | solubility kinetic [µg/mL]
25 | COc1ccc2[nH]c3c(=O)n(Cc4ccncc4)cnc3c2c1 | 7.3 (≈ 23.8 µM)
26 | Clc1ccc(-c2ccnc(-n3cccc3)n2)s1 | < 0.2
27 | COc1ccc(NC(=O)CN(C)C(=O)c2ccccc2OC)cc1 | > 49.3
28 | CCCCNC(=S)Nc1ccccc1Cc1ccccc1 | 32.5 (≈ 109 µM)
29 | COc1ccc(-c2cc(C(=O)Nc3cc(C)on3)no2)cc1OC | < 0.2
30 | O=C(c1cccc([N+](=O)[O-])c1)c1ccc2c(c1)OCCOCCOCCO2 | > 56
31 | CC1CC1C(=O)OCC(=O)NC(=O)NC12CC3CC(CC(C3)C1)C2 (stereo not drawn) | 22.5 (≈ 67.3 µM)
32 | O=c1[nH]c2ccccc2nc1C(F)(F)F | > 32.1
33 | COc1ccccc1CC(=O)NCCN1CCCCC1 | 39.3 (≈ 142 µM)
34 | CCOc1ccc(/C=C2\SC(=S)N(C(C(=O)O)c3ccccc3)C2=O)cc1OC (stereo not drawn) | > 64.4
35 | CC(NC(=O)c1ccc(N)cc1)c1ccccc1 (stereo not drawn) | > 36
36 | NC(=O)COc1ccccc1C(=O)NC12CC3CC(CC(C3)C1)C2 | 14.2 (≈ 43.2 µM)
37 | CCN(CC)c1nc(C)nc2c1sc(=S)n2C | 0.6 (≈ 2.24 µM)
38 | COc1ccccc1C(=O)Nc1cccc2cccnc12 | < 0.3
39 | COc1ccc(Nc2nc(N)c([N+](=O)[O-])c(NCCO)n2)cc1 | 46.4 (≈ 145 µM)
40 | O=C1CN=C(c2cc([N+](=O)[O-])ccc2Cl)c2cc([N+](=O)[O-])ccc2N1 | 1.6 (≈ 4.44 µM)
41 | C=C(C)c1cccc(C(C)(C)NC(=O)NCc2cccnc2)c1 | > 46.4
42 | Cc1nc(COc2ccccc2Cl)sc1-c1ccnc(N)n1 | 1.2 (≈ 3.61 µM)
43 | Cc1ccc(-c2nc(C#N)c(NCC3CCCO3)o2)cc1 (stereo not drawn) | 37 (≈ 131 µM)
44 | O=C(Cc1ccc(Cl)cc1)N1CCc2ccccc2C1 | 37.2 (≈ 130 µM)
45 | Nc1nc(NC2CCCCC2)nc(NCCO)c1[N+](=O)[O-] | 38.1 (≈ 129 µM)
46 | O=C(NC1=NCCS1)c1ccccc1F | 33.4 (≈ 149 µM)
47 | CN1CCN(c2nc3ccccc3o2)CC1 | > 32.6
48 | COc1ccc(OC)c(NC(=O)COC(=O)[C@H](Cc2ccccc2)NC(=O)c2ccco2)c1 | 5.7 (≈ 12.6 µM)

Row | SMILES | solubility kinetic [µg/mL]
49 | CC1=NOC(=O)/C1=C\c1ccc(-c2ccc(Cl)c(C(=O)O)c2)o1 | > 49.8
50 | O=C(NCCCNC(=O)c1ccccc1Cl)c1cnccn1 | 43.5 (≈ 136 µM)
51 | CN(Cc1cccs1)C(=O)COC(=O)CNC(N)=O | > 42.8
52 | CC1(C)Cc2ccccc2C(NN=C2CCCC2)=N1 | > 38.3
53 | O=C(O)c1ccc(/C=N/n2cc(-c3ccccc3)[nH]c2=S)cc1 | > 48.5
54 | CN(C)c1cc(-c2cccc([N+](=O)[O-])c2)oc(=O)c1Cl | 1.3 (≈ 4.41 µM)
55 | COc1ccc(NC(=O)N2CCCc3ccccc32)c(OC)c1 | 45.3 (≈ 145 µM)
56 | CCCCCC(O)(CCN1CCCCC1)c1ccccc1.Cl (stereo not drawn) | > 48.9
57 | CN(C)CCCN=C(NO)c1ccc(Cl)cc1Cl | 40.5 (≈ 140 µM)
58 | O=C(/C=C/c1ccc(F)cc1)NC(=S)Nc1ccccc1 | 1.3 (≈ 4.33 µM)
59 | NC(=O)c1sc2nc3c(cc2c1N)CCCCCC3 | 22.3 (≈ 81 µM)
60 | O=C(/C=C/c1ccccc1Cl)N1CCOCC1 | 36.6 (≈ 145 µM)
61 | O=C(CS(=O)(=O)c1ccccc1)N1CCCCC1 | > 40.1
62 | Cc1ccc(N2C(=O)CCC2(C(N)=O)c2ccccc2)cc1 (stereo not drawn) | > 44.2
63 | CCCNC(=O)CSc1nc(Cc2ccccc2)nc2ccccc12 | 8.2 (≈ 23.3 µM)
64 | O=C(NCCS(=O)(=O)N1CCCC1)c1ccccc1 | > 42.4
65 | N#CCCN(Cc1ccccc1)C(=O)Nc1ccccc1 | > 41.9
66 | Cc1cc2c(NCCc3ccccc3)ncnc2s1.Cl | 8.7
67 | CN(CC(=O)Nc1ccc(F)cc1[N+](=O)[O-])C1CCS(=O)(=O)C1 (stereo not drawn) | > 51.8
68 | Cc1ccc(Cl)c(N/C=C/C(=O)c2ccccc2)c1 | < 0.6
69 | CC1CCC(NC(=O)c2ccc(COc3ccccc3)o2)CC1 (stereo not drawn) | 1.7 (≈ 5.42 µM)
70 | Cc1ccnc(NC(=O)CNC(=O)c2ccc3c(c2)OCO3)c1 | 22.3 (≈ 71.2 µM)
71 | O=c1[nH]c(O)c(C=Nc2ccc(F)c(Cl)c2)c(=O)[nH]1 | 14 (≈ 49.4 µM)
72 | CC(N=Cc1c(O)c2ccccc2oc1=O)C(=O)O (stereo not drawn) | > 39.2

Row | SMILES | solubility kinetic [µg/mL]
73 | COCCn1c(C)cc(C(=O)COC(=O)c2ccc(S(=O)(=O)N(C)C)cc2)c1C | 2.4 (≈ 5.68 µM)
74 | CC(C)c1ccc(N2C(=O)CC(Sc3ncccn3)C2=O)cc1 (stereo not drawn) | 4 (≈ 12.2 µM)
75 | O=C(CCS(=O)(=O)c1ccccc1)Nc1ccc(S(=O)(=O)Nc2nccs2)cc1 | 23.6 (≈ 52.3 µM)
76 | COc1ccc(Cl)cc1S(=O)(=O)n1c([N+](=O)[O-])cnc1C | 31.1 (≈ 93.7 µM)
77 | COc1cc2c(cc1OC)CN(C(=O)c1cccc([N+](=O)[O-])c1)CC2 | 36 (≈ 105 µM)
78 | O=C(Cc1cccs1)NCCc1csc(-c2ccccc2)n1 | > 49.3
79 | Cc1cccc(C)c1NC(=O)CN1CCCC1 | 31.3 (≈ 135 µM)
80 | N#Cc1sc2nccc(Nc3ccccc3)c2c1N | < 0.1
81 | CS(=O)(=O)N1CCCC(C(=O)Nc2ccccc2F)C1 (stereo not drawn) | > 45.1
82 | Cc1ccc(C(=O)NCC(=O)OCC(=O)Nc2cc(S(=O)(=O)N3CCOCC3)ccc2Cl)s1 | > 77.4
83 | CC(C[N+](C)(C)C)OC(=O)C1(c2ccccc2)CCCC1 (stereo not drawn) | 34.7
84 | CCn1c(NC(=O)c2ccccc2)nc2ccccc21 | 3 (≈ 11.3 µM)
85 | O=C(c1cc(-c2cccc(O)c2)on1)N1CCCCCC1 | 40.8 (≈ 142 µM)
86 | O=C(/C=C/c1ccccc1[N+](=O)[O-])c1ccc(F)cc1 | 4.5 (≈ 16.6 µM)
87 | CC(C)N(C(=S)Nc1ccc(S(=O)(=O)N2CCOCC2)cc1)c1ccccc1 | 7.1 (≈ 16.9 µM)
88 | Cn1c(=O)c([N+](=O)[O-])c(N2CCSCC2)c2ccccc21 | 2.2 (≈ 7.2 µM)
89 | Cn1cc(C=C2C(=O)NC(=O)NC2=O)c2ccccc21 | 2.6 (≈ 9.66 µM)
90 | CC(C)CN(CC(C)C)C(=O)Nc1ccc(F)cc1F | 33.2 (≈ 117 µM)
91 | Fc1ccc(OCc2nc(-c3cccs3)no2)cc1 | 0.8 (≈ 2.9 µM)
92 | CCOC(=O)C(=CNc1ccc(OC)cc1[N+](=O)[O-])C(=O)OCC | 0.9 (≈ 2.66 µM)
93 | COC(=O)c1sc(NC(=O)COc2c(C)cccc2C)nc1C | 0.4 (≈ 1.2 µM)
94 | CC12CCC(C(=O)Nc3ccc(Br)cn3)(OC1=O)C2(C)C (stereo not drawn) | > 53
95 | CC(=O)n1cc(C=C2C(=O)NC(=O)NC2=O)c2ccccc21 | 27.5 (≈ 92.5 µM)
96 | Cc1cc2ccccn2c1C(=O)c1ccccc1Br | 8.1 (≈ 25.8 µM)

Row | SMILES | solubility kinetic [µg/mL]
97 | Cc1cc(CNC(=O)COC(=O)C2CC3CCCC(C2)C3=O)cc(C)c1O (stereo not drawn) | > 56
98 | CC1CC(C)CN(C(C)C(=O)Nc2cc(S(=O)(=O)N3CCCCC3)ccc2Cl)C1 (stereo not drawn) | < 0.3
99 | COc1ccc(S(=O)(=O)N2CCCC2)cc1OC | 32.7 (≈ 121 µM)
100 | COc1cc(/C=C(/C#N)C(=O)NCCCc2ccccc2)ccc1OCC(=O)O | 37.9 (≈ 96.1 µM)
101 | COc1ccccc1N1CCN(CCc2ccccc2)CC1 | 37.5 (≈ 127 µM)
102 | CCOC(=O)C1=C(C)NC(C)=C(C(=O)OCC)C1C(=O)OCC(=O)N1CCOCC1 | > 63.7
103 | CC(=O)Nc1ccc(Sc2ccccc2C(=O)O)cn1 | > 43.2
104 | CCCCCCC1CC(=O)NC(=S)N1 (stereo not drawn) | 28.4 (≈ 133 µM)
105 | Cc1ccccc1NC(=O)c1cccc(NC(=O)c2c(C(=O)O)cccc2[N+](=O)[O-])c1 | 56.1 (≈ 134 µM)
106 | COc1ccc(CCN)cc1O.Cl | > 30.6
107 | COC(=O)c1cc(NC(=O)c2cccc(F)c2)cc(C(=O)OC)c1 | 0.7 (≈ 2.11 µM)
108 | O=C(NCCc1cccs1)C(c1ccccc1)c1ccccc1 | 1.5 (≈ 4.67 µM)
109 | Cn1ccnc1SC(C(=O)O)c1ccccc1 (stereo not drawn) | > 37.2
110 | O=S(=O)(Nc1ccc(Cl)cc1)c1cccc2nsnc12 | > 48.9
111 | CCC(C)N1C(=O)CCC1C(=O)NCCc1ccc(Cl)cc1 (stereo not drawn) | > 48.4
112 | COc1ccc(NC(=O)C2=CC=CN3CCS(=O)(=O)N=C23)c(OC)c1 | 13.8 (≈ 38 µM)
113 | CCCCN(CC)C(=O)c1ccc(Cl)cc1 | 29.5 (≈ 123 µM)
114 | O=Cc1ccc(OCC(=O)N2CCOCC2)cc1 | > 37.4
115 | Cc1ccc(S(=O)(=O)NCC(=O)OCCOc2ccc(Br)cc2)cc1 | 3.8 (≈ 8.87 µM)
116 | O=C(CCN1C(=O)C2CC=CCC2C1=O)Nc1ccccc1Cl (stereo not drawn) | > 49.9
117 | O=c1c2ccccc2[nH]c(=S)n1CCCn1ccnc1 | 19.4 (≈ 67.7 µM)
118 | CCCCC#Cc1cncc(C(=O)NN)c1 | > 32.6
